Results: patent US20160074399A1, “Salts of an Epidermal Growth Factor Receptor Kinase Inhibitor” (Clovis Oncology, Inc., priority 2013, published 2016)

Test: Competitive slurry experiments Form I vs. Form III
Assay type: physicochemical
Settings: ca. 3 days
Procedure: Competitive slurry experiments were set up in acetone, isopropanol, acetone:water (80:20) and isopropyl acetate at both room temperature (ca. 22° C.) and 60° C. Approximately 200 mg of each of Forms I and III material was placed into a vial and 4 mL of the appropriate solvent system was added to produce a slurry. For each experiment, the slurries were allowed to stir for ca. 3 days. Analysis by XRPD was then conducted to determine the form of the resultant solid. Competitive slurry experiments of Form I vs. Form III were carried out in 4 solvent systems and resulting solids were analysed by XRPD analysis (FIG. 82 and FIG. 83).

Br.C=CC(=O)Nc1cccc(Nc2nc(Nc3ccc(N4CCN(C(C)=O)CC4)cc3OC)ncc2C(F)(F)F)c1 [I and III]
Result (form of resultant solid) (Acetone, 60° C.): Form I | Result (form of resultant solid) (Acetone, RT (ca. 22° C.)): Form I | Result (form of resultant solid) (Acetone:water (80:20), 60° C.): Form VIII | Result (form of resultant solid) (Acetone:water (80:20), RT (ca. 22° C.)): Form VIII | Result (form of resultant solid) (Isopropanol, 60° C.): Form I | Result (form of resultant solid) (Isopropanol, RT (ca. 22° C.)): Form I | Result (form of resultant solid) (Isopropyl acetate, 60° C.): Form I | Result (form of resultant solid) (Isopropyl acetate, RT (ca. 22° C.)): Form I
